# Test results published in PubChem BioAssay AID1963424 (Molecular Pharmacology Branch, DTP, NCI, 2024).
# Several values for one entry are separate records, joined by “and”; a condition that tells them apart may be missing. Equal values may be shown once.
# Tested on: 327498-153-R-J2-PDC complex spheroid growth, % test/control
# Experiment: Anticancer human tumor 327498-153-R-J2-PDC patient-derived uterine carcinosarcoma cell line growth inhibition [Asc]
# Conditions: for viability, T/C: stronger effect = lower value
# Experimental: Multicellular complex tumor spheroid response to apoptosis pathway targeting inhibitors Alrizomadlin, Pelcitoclax, and Dasminapant in combination with a variety of drugs and investigational agents in selected tumor cell lines
# The MDM2 inhibitor alrizomadlin, the Bcl-2/Bcl-xL inhibitor pelcitoclax, and the IAPs inhibitor dasminapant were evaluated both individually and in combination with standard of care and investigational anticancer small molecules within a complex spheroid model of solid tumors. . Complex spheroids include a stromal component modeled by human endothelial cells (HUVEC) and fibroblasts modeled by human mesenchymal stem cells (MSCs). The concentration ranges selected for each drug and investigational agent were based upon clinically achievable concentrations if the clinical Cmax of the agent was known.
# Compounds. The drugs and investigational agents: alrizomadlin (APG-115; NSC831270), pelcitoclax (APG-1252; NSC835773), dasminapant (APG-1387;NSC834197), TAK-243 (NSC785004), copanlisib (NSC809693), olaparib (NSC753686), talazoparib (NSC767125), cobimetinib (NSC 768068), eltanexor (KPT-8602, NSC 794443), abemaciclib (NSC 768073), sotorasib (NSC818433), adagrasib (NSC 831453), MRTX-1133 (NSC 836407), Iadademestat (ORY1001, NSC 806812), and RMC-4630 (NSC839698), were obtained from the NCI Developmental Therapeutics Program Chemical Repository. The FDA-approved anticancer drug set is available from the Developmental Therapeutics Program at https://dtp.cancer.gov/organization/dscb/obtaining/available plates.htm. […] The stock solutions were prepared in dimethyl sulfoxide (DMSO, Sigma-Aldrich, St. Louis, MO, cat. D2650) at 800-fold the tested concentration and stored at -70 degrees C prior to their use. All drugs and investigational agents were tested over a range starting from a high concentration at or near the clinical Cmax and decreasing in half-log increments. If the clinical Cmax for an agent had not been determined, the highest concentration tested was 10 microM.
# The patient-derived cancer (PDC) cell lines include five colon adenocarcinomas: 186277-243-T-J2-PDC, 616215-338-R-J1-PDC, 439559-082-T-J2-PDC, 463943-066-T-J2-PDC, and 519858-162-T-J1-PDC; three pancreatic carcinomas: 323965-272-R-J2-PDC, 521955-158-R6-J3-PDC, and 521955-158-R2-J5-PDC; two uterine sarcomas: 327498-152-R-J2-PDC and 993429-296-R-J1-PDC; two rhabdomyosarcomas: 755483-174-R-J1-PDC and 772245-204-R-J1-PDC; two soft tissue sarcomas: 126254-015-R-J1-PDC and 494315-158-R-J1-PDC; two malignant fibrous histiocytomas: 317291-083-R-J1-PDC and 596521-263-R-J1-PDC; two breast carcinomas: 171881-019-R-J1-PDC and 885512-296-R-J2-PDC; and one ovarian carcinoma: 6556581-035-R-J-PDC were obtained from the NCI PDMR, (https://pdmr.cancer.gov). The established cell lines HSSY-2 synovial sarcoma (RRID:CVCL 8719), SYO-1 synovial sarcoma (RRID:CVCL_7146), MPNST malignant peripheral neural sheath tumor were obtained from the Sloan Kettering Institute. The following established cell lines were purchased from the American Type Culture Collection (ATCC, Manassas, VA), Sor the received from the NCI repository:, PANC-1 pancreatic carcinoma (CRL-1469, RRID:CVCL_0480), OVCAR-5 ovarian carcinoma (RRID:CVCL_1628), OVCAR-8 ovarian carcinoma (RRID:CVCL_1629), , MCF-7 breast carcinoma (CRL-12584, RRID:CVCL_0031), MDA-MB-231 breast carcinoma (CRL-12532, RRID:CVCL_0062), NCI-H1876 small cell lung carcinoma (CRL-5902, RRID:CVCL_1503), NCI-H510A small cell lung carcinoma (HTB-184, RRID:CVCL_1565), NCI-H1417 (CRL-5869, RRID:CVCL_1469), and NCI-H196 small cell lung carcinoma (CRL-5823, RRID:CVCL_1509). Dr. Peter Houghton (Greehey Children's Cancer Research Institute, University of Texas Health Science Center, San Antonio, TX) provided Rh-18 rhabdomyosarcoma (RRID:CVCL_1659). Pooled donor human umbilical vein endothelial cells (HUVEC, Lonza, cat. CC-2519) and human mesenchymal stem cells (hMSC, Lonza, cat. PT-2501) were purchased from Lonza (Walkersville, MD).
# Cell Culture. […]
# [1] = curve of first compound, second compound 0.1 µM
# [2] = curve of first compound, second compound 0.316 µM
# [3] = curve of first compound, second compound 1 µM
# [4] = curve of first compound, second compound 3.16 µM
# [5] = curve of first compound, second compound 10 µM
# 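Also: spheroids exposed to compound for 7 days after 3 days of growth.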
# 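For viability, T/C in this document: 100% = DMSO vehicle control wells.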
structure (smiles),measurement,setting,value
CCN1CCN(Cc2ccc(Nc3ncc(F)c(-c4cc(F)c5nc(C)n(C(C)C)c5c4)n3)nc2)CC1,"viability, T/C",compound 0.00316 µM,95% and 98.3% and 99.9%
same,"viability, T/C",compound 0.01 µM,82.9% and 85.2% and 108%
same,"viability, T/C",compound 0.0316 µM,78% and 88.9% and 94.2%
same,"viability, T/C",compound 0.1 µM,73.7% and 77.4% and 81.4%
same,"viability, T/C",compound 0.316 µM,70.5% and 69.2% and 73.2%
same,"viability, T/C",compound 1 µM,63.1% and 63.3% and 75.3%
same,IC50,curve of compound,> 1000 nM
NC1CCC(NC2CC2c2ccccc2)CC1 (centres undefined),"viability, T/C",compound 0.000316 µM,101% and 116% and 107%
same,"viability, T/C",compound 0.001 µM,97.7% and 101% and 104%
same,"viability, T/C",compound 0.00316 µM,104% and 101% and 98.6%
same,"viability, T/C",compound 0.01 µM,96.9% and 103% and 106%
same,"viability, T/C",compound 0.0316 µM,96.4% and 105% and 96.6%
same,"viability, T/C",compound 0.1 µM,89.5% and 98.1% and 92.1%
same,IC50,curve of compound,> 100 nM
O=C(c1cc(Cc2n[nH]c(=O)c3ccccc23)ccc1F)N1CCN(C(=O)C2CC2)CC1 + Cc1c(S(C)(=O)=O)c(-c2cc(F)cc(N3CCN(c4ccc(NS(=O)(=O)c5ccc(NC(CCN6CCC(C(=O)OCCCP(=O)(O)O)CC6)CSc6ccccc6)c(S(=O)(=O)C(F)(F)F)c5)cc4)CC3)c2)c(-c2ccc(Cl)cc2)n1C(C)C,IC50,[1],3740 nM
same,IC50,[2],2530 nM
same,IC50,[3],2490 nM
same,IC50,[4],2500 nM
same,IC50,[5],3150 nM
same,"viability, T/C","second compound 0.1 µM, first compound 0.0316 µM",103%
same,"viability, T/C","second compound 0.1 µM, first compound 0.1 µM",102%
same,"viability, T/C","second compound 0.1 µM, first compound 0.316 µM",88.6%
same,"viability, T/C","second compound 0.1 µM, first compound 1 µM",88.1%
same,"viability, T/C","second compound 0.1 µM, first compound 3.16 µM",55.5%
same,"viability, T/C","second compound 0.1 µM, first compound 10 µM",9.69%
same,"viability, T/C","second compound 0.316 µM, first compound 0.0316 µM",85.4%
same,"viability, T/C","second compound 0.316 µM, first compound 0.1 µM",89.2%
same,"viability, T/C","second compound 0.316 µM, first compound 0.316 µM",86.4%
same,"viability, T/C","second compound 0.316 µM, first compound 1 µM",75.4%
same,"viability, T/C","second compound 0.316 µM, first compound 3.16 µM",43.9%
same,"viability, T/C","second compound 0.316 µM, first compound 10 µM",7.08%
same,"viability, T/C","second compound 1 µM, first compound 0.0316 µM",94.5%
same,"viability, T/C","second compound 1 µM, first compound 0.1 µM",102%
same,"viability, T/C","second compound 1 µM, first compound 0.316 µM",86.9%
same,"viability, T/C","second compound 1 µM, first compound 1 µM",76.9%
same,"viability, T/C","second compound 1 µM, first compound 3.16 µM",43%
same,"viability, T/C","second compound 1 µM, first compound 10 µM",6.29%
same,"viability, T/C","second compound 3.16 µM, first compound 0.0316 µM",94%
same,"viability, T/C","second compound 3.16 µM, first compound 0.1 µM",89.5%
same,"viability, T/C","second compound 3.16 µM, first compound 0.316 µM",86%
same,"viability, T/C","second compound 3.16 µM, first compound 1 µM",76%
same,"viability, T/C","second compound 3.16 µM, first compound 3.16 µM",43.2%
same,"viability, T/C","second compound 3.16 µM, first compound 10 µM",4.54%
same,"viability, T/C","second compound 10 µM, first compound 0.0316 µM",164%
same,"viability, T/C","second compound 10 µM, first compound 0.1 µM",164%
same,"viability, T/C","second compound 10 µM, first compound 0.316 µM",157%
same,"viability, T/C","second compound 10 µM, first compound 1 µM",112%
same,"viability, T/C","second compound 10 µM, first compound 3.16 µM",49.1%
same,"viability, T/C","second compound 10 µM, first compound 10 µM",6.96%
NC(=O)C(=Cn1cnc(-c2cc(C(F)(F)F)cc(C(F)(F)F)c2)n1)c1cncnc1 + Cc1c(S(C)(=O)=O)c(-c2cc(F)cc(N3CCN(c4ccc(NS(=O)(=O)c5ccc(NC(CCN6CCC(C(=O)OCCCP(=O)(O)O)CC6)CSc6ccccc6)c(S(=O)(=O)C(F)(F)F)c5)cc4)CC3)c2)c(-c2ccc(Cl)cc2)n1C(C)C,IC50,[1],36.4 nM
same,IC50,[2],39.4 nM
same,IC50,[3],31.2 nM
same,IC50,[4],30.5 nM
same,IC50,[5],46.6 nM
same,"viability, T/C","second compound 0.1 µM, first compound 0.000949 µM",88.6%
same,"viability, T/C","second compound 0.1 µM, first compound 0.003 µM",91.2%
same,"viability, T/C","second compound 0.1 µM, first compound 0.00949 µM",84.6%
same,"viability, T/C","second compound 0.1 µM, first compound 0.03 µM",58.4%
same,"viability, T/C","second compound 0.1 µM, first compound 0.0949 µM",9.68%
same,"viability, T/C","second compound 0.1 µM, first compound 0.3 µM",0.77%
same,"viability, T/C","second compound 0.316 µM, first compound 0.000949 µM",98.2%
same,"viability, T/C","second compound 0.316 µM, first compound 0.003 µM",93.3%
same,"viability, T/C","second compound 0.316 µM, first compound 0.00949 µM",86.8%
same,"viability, T/C","second compound 0.316 µM, first compound 0.03 µM",64.3%
same,"viability, T/C","second compound 0.316 µM, first compound 0.0949 µM",4.86%
same,"viability, T/C","second compound 0.316 µM, first compound 0.3 µM",0.51%
same,"viability, T/C","second compound 1 µM, first compound 0.000949 µM",99.7%
same,"viability, T/C","second compound 1 µM, first compound 0.003 µM",94.6%
same,"viability, T/C","second compound 1 µM, first compound 0.00949 µM",87.1%
same,"viability, T/C","second compound 1 µM, first compound 0.03 µM",53.1%
same,"viability, T/C","second compound 1 µM, first compound 0.0949 µM",3.7%
same,"viability, T/C","second compound 1 µM, first compound 0.3 µM",1.44%
same,"viability, T/C","second compound 3.16 µM, first compound 0.000949 µM",95.8%
same,"viability, T/C","second compound 3.16 µM, first compound 0.003 µM",90.7%
same,"viability, T/C","second compound 3.16 µM, first compound 0.00949 µM",93.4%
same,"viability, T/C","second compound 3.16 µM, first compound 0.03 µM",50.5%
same,"viability, T/C","second compound 3.16 µM, first compound 0.0949 µM",4.58%
same,"viability, T/C","second compound 3.16 µM, first compound 0.3 µM",0.43%
same,"viability, T/C","second compound 10 µM, first compound 0.000949 µM",168%
same,"viability, T/C","second compound 10 µM, first compound 0.003 µM",168%
same,"viability, T/C","second compound 10 µM, first compound 0.00949 µM",168%
same,"viability, T/C","second compound 10 µM, first compound 0.03 µM",78.8%
same,"viability, T/C","second compound 10 µM, first compound 0.0949 µM",4.73%
same,"viability, T/C","second compound 10 µM, first compound 0.3 µM",0.54%
